From paper PMC4278837, “A Cyclic Peptidic Serine Protease Inhibitor: Increasing Affinity by Increasing Peptide Flexibility” (PLoS ONE, 2014)
Bridge positions count the residues as written; N and C are the ends. Peptide text beside a SMILES is read from it.

Columns and labels:
huPA-H99Y Q192A = huPA-H99Y Q192A (Homo sapiens, UniProt P00749, H272Y/Q373A); experiment: Ki for inhibition of huPA-H99Y-Q192A, chromogenic substrate; assay type: biochemical; design: To ensure that the uPAs purified from the conditioned media were completely in the two-chain form, they were treated with plasmin; hexa-His (C); made in house; host or cells: HEK293 6E suspension cells
Text: (§1) Determination of Ki values
(§2) The initial reaction velocities were monitored at an absorbance of 405 nm. The inhibition constants (K i) were subsequently determined from the non-linear regression analyses of plots for V i/V o versus [I]0, using Equation 2, derived under assumption of competitive inhibition:
(§3) [drawing 2] (2) where V i and V 0 are the reaction velocities in the presence and absence of inhibitor, respectively; [S]0 and [I]0 are the substrate and inhibitor concentrations, respectively; K M is K M for substrate hydrolysis by each protease. In Equation 2, it is assumed that [S]free ≈ [S]0 and [I]free ≈ [I]0.

huPA-H99Y R35A = biological target: T1, huPA-H99Y R35A (Homo sapiens, UniProt P00749, H272Y/R198A); experiment: Ki for inhibition of huPA-H99Y-R35A, chromogenic substrate; assay type: biochemical
T1 construct: To ensure that the uPAs purified from the conditioned media were completely in the two-chain form, they were treated with plasmin; hexa-His (C); made in house; host or cells: HEK293 6E suspension cells
Text: as §1, §2, §3

muPA wt = biological target: T2, muPA wt (Mus musculus, UniProt P06869); conditions: introduction; read-out: K i value for inhibition of muPA; cited from earlier work
T2 construct: To ensure that the uPAs purified from the conditioned media were completely in the two-chain form, they were treated with plasmin; hexa-His (C); made in house; host or cells: HEK293 6E suspension cells
T2 sequence (P06869 180-433 limits assumed): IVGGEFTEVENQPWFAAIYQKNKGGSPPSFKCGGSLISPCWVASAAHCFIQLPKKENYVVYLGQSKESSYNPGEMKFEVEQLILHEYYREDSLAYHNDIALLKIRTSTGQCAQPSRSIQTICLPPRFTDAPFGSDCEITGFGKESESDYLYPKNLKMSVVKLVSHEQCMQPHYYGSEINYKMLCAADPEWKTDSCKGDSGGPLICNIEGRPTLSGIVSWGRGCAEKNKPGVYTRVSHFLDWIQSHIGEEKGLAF
T2 sequence (P06869 21-178 partner limits assumed): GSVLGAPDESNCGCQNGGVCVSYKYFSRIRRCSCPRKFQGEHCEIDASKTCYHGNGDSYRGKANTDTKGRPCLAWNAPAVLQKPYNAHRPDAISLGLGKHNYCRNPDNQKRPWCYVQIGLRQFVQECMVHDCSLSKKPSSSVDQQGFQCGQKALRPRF

muPA Y99A = biological target: T3, muPA Y99A (Mus musculus, UniProt P06869, Y274A); experiment: Ki for inhibition of muPA-Y99A, chromogenic substrate; assay type: biochemical, murine
T3 construct: To ensure that the uPAs purified from the conditioned media were completely in the two-chain form, they were treated with plasmin; hexa-His (C); made in house; host or cells: HEK293 6E suspension cells
T3 sequence (P06869 180-433 Y274A): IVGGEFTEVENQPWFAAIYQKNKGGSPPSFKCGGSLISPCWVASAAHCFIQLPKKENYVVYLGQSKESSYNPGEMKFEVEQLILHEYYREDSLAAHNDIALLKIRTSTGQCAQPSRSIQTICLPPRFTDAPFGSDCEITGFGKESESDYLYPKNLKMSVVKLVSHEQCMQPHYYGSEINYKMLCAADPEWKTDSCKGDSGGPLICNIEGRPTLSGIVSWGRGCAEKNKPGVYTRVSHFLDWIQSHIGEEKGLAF
T3 sequence (P06869 21-178 partner limits assumed): as the sequence (P06869 21-178 partner limits assumed) above
Text: as §1, §2, §3

muPA = biological target: T4, muPA (Mus musculus, UniProt P06869); experiment: Surface plasmon resonance analysis of peptide binding to muPA; design: species or system murine; conditions: SPR, 25°C, pH 7.4
T4 construct: To ensure that the uPAs purified from the conditioned media were completely in the two-chain form, they were treated with plasmin; hexa-His (C); made in house; host or cells: HEK293 6E suspension cells
T4 sequence (P06869 180-433 limits assumed): as the sequence (P06869 180-433 limits assumed) above
T4 sequence (P06869 21-178 partner limits assumed): as the sequence (P06869 21-178 partner limits assumed) above
Method: (§4) Surface plasmon resonance (SPR) analysis
(§5) To determine the equilibrium binding constants (KD), the association rate constants (kon) and dissociation rate constants (koff) for peptide binding to uPA, surface plasmon resonance analysis was performed on a Biacore T200 instrument (Biacore, Uppsala, Sweden). A CM5 chip was coupled with the uPA variant (muPA or huPAH99Y) to be analysed, by injecting a concentration of 30 µg/mL uPA in immobilization buffer (10 mM sodium acetate, pH 5.0), aiming for an immobilised level of approximately 500 response units (RU). Immobilisation was followed by surface blocking with ethanolamine. A reference cell was prepared in the same way, without coupling of uPA. Mupain-1 variants in HBS with 0.1% BSA, in a dilution series, were injected at a flow rate of 30 µL per min during 60 s at 25°C. Subsequently, the dissociation was monitored during 600 s. Kinetic constants (k on and k off) were calculated with the Biacore Evaluation Software, using the 1∶1 kinetic fit. The K D values were calculated as k off /k on.

huPA-H99Y [1] = biological target: T5, huPA-H99Y (Homo sapiens, UniProt P00749, H272Y); conditions: 37°C; means ± S.D.; starred values reproduced from previous publications; ref Andersen et al., 2008; Hosseini et al., 2011; read-out: K i for inhibition of huPA-H99Y; cited from earlier work
T5 construct: To ensure that the uPAs purified from the conditioned media were completely in the two-chain form, they were treated with plasmin; hexa-His (C); made in house; host or cells: HEK293 6E suspension cells

muPA K143A = biological target: T6, muPA K143A (Mus musculus, UniProt P06869, K322A); experiment: Ki for inhibition of muPA-K143A, chromogenic substrate; assay type: biochemical, murine; conditions: means ± S.D.; read-out: K i for inhibition of muPA-K143A
T6 construct: To ensure that the uPAs purified from the conditioned media were completely in the two-chain form, they were treated with plasmin; hexa-His (C); made in house; host or cells: HEK293 6E suspension cells
T6 sequence (P06869 180-433 K322A): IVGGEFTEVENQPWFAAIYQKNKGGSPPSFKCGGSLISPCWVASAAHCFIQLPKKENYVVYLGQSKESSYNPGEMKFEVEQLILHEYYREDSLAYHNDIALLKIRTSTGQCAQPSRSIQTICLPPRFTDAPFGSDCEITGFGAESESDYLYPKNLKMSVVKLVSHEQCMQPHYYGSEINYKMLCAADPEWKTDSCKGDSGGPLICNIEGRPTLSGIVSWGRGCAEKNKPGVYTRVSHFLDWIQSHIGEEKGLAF
T6 sequence (P06869 21-178 partner limits assumed): as the sequence (P06869 21-178 partner limits assumed) above
Text: as §1, §2, §3

huPA-H99Y [2] = biological target: T5, huPA-H99Y; experiment: Surface plasmon resonance analysis of peptide binding to huPA-H99Y; conditions: SPR
Method: as §4, §5

huPA-H99Y K143A = biological target: T7, huPA-H99Y K143A (Homo sapiens, UniProt P00749, H272Y/K320A); experiment: Ki for inhibition of huPA-H99Y-K143A, chromogenic substrate; assay type: biochemical
T7 construct: To ensure that the uPAs purified from the conditioned media were completely in the two-chain form, they were treated with plasmin; hexa-His (C); made in house; host or cells: HEK293 6E suspension cells
Text: as §1, §2, §3

huPA-H99Y V41A = biological target: T8, huPA-H99Y V41A (Homo sapiens, UniProt P00749, H272Y/V208A); experiment: Ki for inhibition of huPA-H99Y-V41A, chromogenic substrate; assay type: biochemical
T8 construct: To ensure that the uPAs purified from the conditioned media were completely in the two-chain form, they were treated with plasmin; hexa-His (C); made in house; host or cells: HEK293 6E suspension cells
Text: as §1, §2, §3

muPA V213T = biological target: T9, muPA V213T (Mus musculus, UniProt P06869, V396T); experiment: Ki for inhibition of muPA-V213T, chromogenic substrate; assay type: biochemical, murine
T9 construct: To ensure that the uPAs purified from the conditioned media were completely in the two-chain form, they were treated with plasmin; hexa-His (C); made in house; host or cells: HEK293 6E suspension cells
T9 sequence (P06869 180-433 V396T): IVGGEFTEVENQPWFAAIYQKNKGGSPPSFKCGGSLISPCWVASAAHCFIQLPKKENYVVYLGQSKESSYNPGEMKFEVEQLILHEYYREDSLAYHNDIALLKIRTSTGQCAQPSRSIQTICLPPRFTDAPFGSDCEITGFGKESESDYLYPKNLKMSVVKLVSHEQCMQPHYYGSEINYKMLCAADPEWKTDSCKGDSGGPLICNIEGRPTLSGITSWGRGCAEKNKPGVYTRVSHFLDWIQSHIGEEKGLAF
T9 sequence (P06869 21-178 partner limits assumed): as the sequence (P06869 21-178 partner limits assumed) above
Text: as §1, §2, §3

huPA-H99Y [3] = biological target: T10, huPA-H99Y (Homo sapiens, UniProt P00749, C299A/H272Y/N322Q); experiment: Isothermal titration calorimetry for binding to huPA-H99Y catalytic domain; conditions: ITC, 25°C, pH 7.4
T10 construct: recombinant uPA catalytic domain (residues 159–411), harbouring a H99Y mutation; made in house; host or cells: Pichia pastoris X-33 (secreted)
Method: For these experiments, we used the catalytic domain of huPA-H99Y expressed in and purified from Pichia pastoris strain X-33 (see above). The protein was dissolved in and dialysed against a buffer of 20 mM sodium phosphate, pH 7.4, 140 mM NaCl. The protein concentration was determined by absorbance at 280 nm, using an extinction coefficient of 43810 M^−1cm^−1. The peptides were dissolved in the above-mentioned buffer. All isothermal titration calorimetry experiments were performed with a MicroCal^TM ITC200 instrument equilibrated to a temperature of 25°C (298oK). The concentration of uPA-H99Y catalytic domain used in the 200 µl sample cell was 5–50 µM, depending on the affinity of the ligand. Titrations were performed by injecting 2 µl of the ligand until the total syringe volume of 40 µl was spent. Titration of ligand into buffer was performed to obtain buffer correction. The equilibrium association constant KA and the reaction enthalpy ΔH were calculated by fitting the integrated titration peaks using a one-binding-site model in the ITC ORIGIN7 programme package. The following formulas for Gibbs free energy ΔG were used to analyse the measured energies
[drawing 4] (4) where R is the gas constant and T the absolute temperature. ΔS, the entropic change during the reaction, was calculated using equations 3 and 4 and the measured K A and ΔH values.

muPA S190A = biological target: T11, muPA S190A (Mus musculus, UniProt P06869, S373A); experiment: Ki for inhibition of muPA-S190A, chromogenic substrate; assay type: biochemical, murine
T11 construct: To ensure that the uPAs purified from the conditioned media were completely in the two-chain form, they were treated with plasmin; hexa-His (C); made in house; host or cells: HEK293 6E suspension cells
T11 sequence (P06869 180-433 S373A): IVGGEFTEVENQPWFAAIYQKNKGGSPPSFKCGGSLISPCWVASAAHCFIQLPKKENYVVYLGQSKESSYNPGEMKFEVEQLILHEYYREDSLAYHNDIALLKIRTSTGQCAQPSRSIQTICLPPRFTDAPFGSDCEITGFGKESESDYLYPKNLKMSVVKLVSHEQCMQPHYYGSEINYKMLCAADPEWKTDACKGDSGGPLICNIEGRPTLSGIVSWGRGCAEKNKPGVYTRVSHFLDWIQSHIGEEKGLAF
T11 sequence (P06869 21-178 partner limits assumed): as the sequence (P06869 21-178 partner limits assumed) above
Text: as §1, §2, §3

muPA K41A = biological target: T12, muPA K41A (Mus musculus, UniProt P06869, K210A); experiment: Ki for inhibition of muPA-K41A, chromogenic substrate; assay type: biochemical, murine
T12 construct: To ensure that the uPAs purified from the conditioned media were completely in the two-chain form, they were treated with plasmin; hexa-His (C); made in house; host or cells: HEK293 6E suspension cells
T12 sequence (P06869 180-433 K210A): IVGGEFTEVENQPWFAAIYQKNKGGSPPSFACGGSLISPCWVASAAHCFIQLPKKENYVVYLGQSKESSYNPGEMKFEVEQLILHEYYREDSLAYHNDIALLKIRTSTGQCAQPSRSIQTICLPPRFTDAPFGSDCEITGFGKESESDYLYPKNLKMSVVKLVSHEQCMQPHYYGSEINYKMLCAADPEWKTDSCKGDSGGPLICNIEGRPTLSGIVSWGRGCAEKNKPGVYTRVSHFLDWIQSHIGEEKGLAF
T12 sequence (P06869 21-178 partner limits assumed): as the sequence (P06869 21-178 partner limits assumed) above
Text: as §1, §2, §3

CC(=O)N[C@H]1CSSC[C@@H](C(N)=O)NC(=O)[C@H](CC(=O)O)NC(=O)[C@H](CC(C)C)NC(=O)[C@H](Cc2ccc(O)cc2)NC(=O)[C@H](CCCNC(=N)N)NC(=O)[C@H](CO)NC(=O)[C@H](Cc2ccc(O)cc2)NC(=O)[C@H](C)NC(=O)[C@@H]2CCCN2C1=O [Mupain-1, CPAYSRYLDC] (Ac-CPAYSRYLDC-NH2; disulfide 1-10)
Ki (huPA-H99Y Q192A): 33.2 ± 4.2 µM | Ki (huPA-H99Y R35A): 39.5 ± 2.9 µM | Ki (muPA wt): ~0.5 µM | Ki (muPA Y99A): 26 ± 5.8 µM | k off, muPA (muPA): 3.64±1.03 (6) s^−1, ×10^2 | k on, muPA (muPA): 0.914±0.250 (6) M^−1s^−1, ×10^−5 | Ki (huPA-H99Y [1]): 15.3 ± 2 µM | Ki (muPA K143A): 4.88 ± 0.35 µM | Kd (huPA-H99Y [2]; K D, huPA-H99Y, 25°C, pH 7.4, calculated as k off/k on): 14.1 ± 2.4 µM | Kd (huPA-H99Y [2]; KD of fitted curve, representative sensorgram, huPA-H99Y immobilized on CM5 chip, single example (S3 Fig)): 15.8 µM | k off, huPA-H99Y (huPA-H99Y [2]; 25°C, pH 7.4): 80.2±7.6 (4) s^-1, ×10^2 | k on, huPA-H99Y (huPA-H99Y [2]; 25°C, pH 7.4): 0.569±0.103 (4) M^-1s^-1, ×10^-5 | koff (huPA-H99Y [2]; huPA-H99Y immobilized on CM5 chip, single example (S3 Fig), read-out: koff of fitted curve, representative sensorgram): 0.803 s⁻¹ | kon (huPA-H99Y [2]; huPA-H99Y immobilized on CM5 chip, single example (S3 Fig), read-out: kon of fitted curve, representative sensorgram): 50900 M⁻¹ s⁻¹ | Ki (huPA-H99Y K143A): 56.6 ± 8 µM | Ki (huPA-H99Y V41A): 32.4 ± 5.3 µM | Ki (muPA V213T): 0.246 ± 0.044 µM | Kd (huPA-H99Y [3]): 5.04 ± 1.61 µM | Ki (muPA S190A): 1.6 ± 0.53 µM | Ki (muPA K41A): 4.29 ± 0.15 µM
